Experimental data as given in the supplement of paper PMC10307832.

Columns and labels:
Assay in all cases: relative viability (nuclei count vs DMSO), 5 days (fraction); higher = more cells survive
[1] = compound: CN(c1ncccc1CNc1nc(Nc2ccc3c(c2)CC(=O)N3)ncc1C(F)(F)F)S(C)(=O)=O + CC(=O)Nc1cccc(-n2c(=O)n(C3CC3)c(=O)c3c(Nc4ccc(I)cc4F)n(C)c(=O)c(C)c32)c1 [Trametinib] (partner 0.02 µM)
Procedure, shortened: (§1)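 For relative viability, nuclei counts in treated wells were divided by those in vehicle wells. Lung cancer cell lines had been pin-tool dosed in 1536-well plates the day after seeding and cultured for 5 days, then fixed and stained in one step (final 0.05% Triton X-100, 1% formaldehyde, 1 ug/ml Hoechst) and imaged at 4×. Doses were one drug alone or a fixed anchor-drug dose plus five library-drug doses (not always all listed) in √10 steps, and values are duplicate-plate medians.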

[2] = compound: CN(c1ncccc1CNc1nc(Nc2ccc3c(c2)CC(=O)N3)ncc1C(F)(F)F)S(C)(=O)=O + COc1cccc2cc(-c3nc([C@H]4CC[C@H](C(=O)O)CC4)n4ncnc(N)c34)[nH]c12 [OSI-027] (partner 0.5 µM)
Procedure, shortened: as §1

[3] = compound: CN(c1ncccc1CNc1nc(Nc2ccc3c(c2)CC(=O)N3)ncc1C(F)(F)F)S(C)(=O)=O + CS(=O)(=O)CCNCc1ccc(-c2ccc3ncnc(Nc4ccc(OCc5cccc(F)c5)c(Cl)c4)c3c2)o1 [Lapatinib] (partner 2 µM)
Procedure, shortened: as §1

[4] = compound: CN(c1ncccc1CNc1nc(Nc2ccc3c(c2)CC(=O)N3)ncc1C(F)(F)F)S(C)(=O)=O + C[C@]1(O)C[C@@H](c2nc(-c3ccc4ccc(-c5ccccc5)nc4c3)c3c(N)nccn32)C1 [Linsitinib] (partner 1 µM)
Procedure, shortened: as §1

Cell Line NCI-H23 has a relative viability ([1]; first compound 0.01 µM) of 0.392, a relative viability ([1]; first compound 0.03162 µM) of 0.319 and a relative viability ([1]; first compound 0.1 µM) of 0.388. It also gave a relative viability ([1]; first compound 0.3162 µM) of 0.466, a relative viability ([1]; first compound 1 µM) of 0.404 and a relative viability ([2]; first compound 0.01 µM) of 0.735. For the same cell line, the relative viability ([2]; first compound 0.03162 µM) was 0.55, the relative viability ([2]; first compound 0.1 µM) was 0.625 and the relative viability ([2]; first compound 0.3162 µM) was 0.769. It also gave a relative viability ([2]; first compound 1 µM) of 0.547, a relative viability ([3]; first compound 0.01 µM) of 1.26 and a relative viability ([3]; first compound 0.03162 µM) of 1.25. It also gave a relative viability ([3]; first compound 0.1 µM) of 1.11, a relative viability ([3]; first compound 0.3162 µM) of 1.21 and a relative viability ([3]; first compound 1 µM) of 0.987. For the same cell line, the relative viability ([4]; first compound 0.01 µM) was 0.598, the relative viability ([4]; first compound 0.03162 µM) was 0.695 and the relative viability ([4]; first compound 0.1 µM) was 0.549. The relative viability ([4]; first compound 0.3162 µM) was 0.678 and the relative viability ([4]; first compound 1 µM) was 0.723.
NCI-H322M showed a relative viability ([1]; first compound 0.01 µM) of 0.432, a relative viability ([1]; first compound 0.03162 µM) of 0.518 and a relative viability ([1]; first compound 0.1 µM) of 0.522. The relative viability ([1]; first compound 0.3162 µM) was 0.479, the relative viability ([1]; first compound 1 µM) was 0.51 and the relative viability ([2]; first compound 0.01 µM) was 0.562. The relative viability ([2]; first compound 0.03162 µM) was 0.598, the relative viability ([2]; first compound 0.1 µM) was 0.537 and the relative viability ([2]; first compound 0.3162 µM) was 0.599. For the same cell line, the relative viability ([2]; first compound 1 µM) was 0.623, the relative viability ([3]; first compound 0.01 µM) was 0.585 and the relative viability ([3]; first compound 0.03162 µM) was 0.675. For the same cell line, the relative viability ([3]; first compound 0.3162 µM) was 0.596, the relative viability ([3]; first compound 1 µM) was 0.653 and the relative viability ([4]; first compound 0.01 µM) was 1.02. For the same cell line, the relative viability ([4]; first compound 0.03162 µM) was 1.08, the relative viability ([4]; first compound 0.3162 µM) was 1.1 and the relative viability ([4]; first compound 1 µM) was 1.16.
NCI-H358 showed a relative viability ([1]; first compound 0.01 µM) of 0.12, a relative viability ([1]; first compound 0.03162 µM) of 0.125 and a relative viability ([1]; first compound 0.1 µM) of 0.108. For the same cell line, the relative viability ([1]; first compound 0.3162 µM) was 0.126, the relative viability ([1]; first compound 1 µM) was 0.0973 and the relative viability ([2]; first compound 0.01 µM) was 0.791. It also gave a relative viability ([2]; first compound 0.03162 µM) of 0.822, a relative viability ([2]; first compound 0.1 µM) of 0.849 and a relative viability ([2]; first compound 0.3162 µM) of 0.815. The relative viability ([2]; first compound 1 µM) was 0.752, the relative viability ([3]; first compound 0.01 µM) was 0.449 and the relative viability ([3]; first compound 0.03162 µM) was 0.414. For the same cell line, the relative viability ([3]; first compound 0.1 µM) was 0.42, the relative viability ([3]; first compound 0.3162 µM) was 0.431 and the relative viability ([3]; first compound 1 µM) was 0.397. For the same cell line, the relative viability ([4]; first compound 0.01 µM) was 0.739, the relative viability ([4]; first compound 0.03162 µM) was 0.727 and the relative viability ([4]; first compound 0.1 µM) was 0.626. It also gave a relative viability ([4]; first compound 0.3162 µM) of 0.705 and a relative viability ([4]; first compound 1 µM) of 0.666.
For NCI-H460, the relative viability ([1]; first compound 0.01 µM) was 0.108, the relative viability ([1]; first compound 0.03162 µM) was 0.139 and the relative viability ([1]; first compound 0.1 µM) was 0.2. It also gave a relative viability ([1]; first compound 0.3162 µM) of 0.185, a relative viability ([1]; first compound 1 µM) of 0.129 and a relative viability ([2]; first compound 0.01 µM) of 0.666. The relative viability ([2]; first compound 0.03162 µM) was 0.964, the relative viability ([2]; first compound 0.1 µM) was 0.691 and the relative viability ([2]; first compound 0.3162 µM) was 0.705. The relative viability ([2]; first compound 1 µM) was 0.665, the relative viability ([3]; first compound 0.01 µM) was 1.11 and the relative viability ([3]; first compound 0.03162 µM) was 1.65. The relative viability ([3]; first compound 0.1 µM) was 0.963, the relative viability ([3]; first compound 0.3162 µM) was 0.964 and the relative viability ([3]; first compound 1 µM) was 1.02. For the same cell line, the relative viability ([4]; first compound 0.01 µM) was 0.79, the relative viability ([4]; first compound 0.03162 µM) was 1.17 and the relative viability ([4]; first compound 0.1 µM) was 0.785. The relative viability ([4]; first compound 0.3162 µM) was 0.628 and the relative viability ([4]; first compound 1 µM) was 0.788.
Work on NCI-H520 yielded a relative viability ([1]; first compound 0.01 µM) of 0.714, a relative viability ([1]; first compound 0.03162 µM) of 0.666 and a relative viability ([1]; first compound 0.1 µM) of 0.646. The relative viability ([1]; first compound 0.3162 µM) was 0.7, the relative viability ([1]; first compound 1 µM) was 0.705 and the relative viability ([2]; first compound 0.01 µM) was 0.339. For the same cell line, the relative viability ([2]; first compound 0.03162 µM) was 0.331, the relative viability ([2]; first compound 0.1 µM) was 0.244 and the relative viability ([2]; first compound 0.3162 µM) was 0.321. It also gave a relative viability ([2]; first compound 1 µM) of 0.344, a relative viability ([3]; first compound 0.01 µM) of 0.917 and a relative viability ([3]; first compound 0.03162 µM) of 1.02. It also gave a relative viability ([3]; first compound 0.1 µM) of 0.845, a relative viability ([3]; first compound 0.3162 µM) of 0.838 and a relative viability ([3]; first compound 1 µM) of 1.04. It also gave a relative viability ([4]; first compound 0.01 µM) of 1.03, a relative viability ([4]; first compound 0.03162 µM) of 0.941 and a relative viability ([4]; first compound 0.1 µM) of 1. The relative viability ([4]; first compound 0.3162 µM) was 1.03 and the relative viability ([4]; first compound 1 µM) was 0.842.
Cell Line NCI-H596 has a relative viability ([1]; first compound 0.01 µM) of 0.932, a relative viability ([1]; first compound 0.03162 µM) of 0.779 and a relative viability ([1]; first compound 0.1 µM) of 0.559. For the same cell line, the relative viability ([1]; first compound 0.3162 µM) was 0.781, the relative viability ([1]; first compound 1 µM) was 0.728 and the relative viability ([2]; first compound 0.01 µM) was 0.698. The relative viability ([2]; first compound 0.03162 µM) was 0.799, the relative viability ([2]; first compound 0.1 µM) was 0.664 and the relative viability ([2]; first compound 0.3162 µM) was 0.731. The relative viability ([2]; first compound 1 µM) was 0.669, the relative viability ([3]; first compound 0.01 µM) was 1.05 and the relative viability ([3]; first compound 0.03162 µM) was 1.16. For the same cell line, the relative viability ([3]; first compound 0.1 µM) was 0.929, the relative viability ([3]; first compound 0.3162 µM) was 0.979 and the relative viability ([3]; first compound 1 µM) was 1.06. The relative viability ([4]; first compound 0.01 µM) was 1, the relative viability ([4]; first compound 0.03162 µM) was 1.12 and the relative viability ([4]; first compound 0.1 µM) was 1.02. The relative viability ([4]; first compound 0.3162 µM) was 1.05 and the relative viability ([4]; first compound 1 µM) was 0.896.
With NCI-H647 the relative viability ([1]; first compound 0.01 µM) was 0.582, the relative viability ([1]; first compound 0.03162 µM) was 0.594 and the relative viability ([1]; first compound 0.1 µM) was 0.459. It also gave a relative viability ([1]; first compound 0.3162 µM) of 0.463, a relative viability ([1]; first compound 1 µM) of 0.414 and a relative viability ([2]; first compound 0.01 µM) of 0.656. For the same cell line, the relative viability ([2]; first compound 0.03162 µM) was 0.76, the relative viability ([2]; first compound 0.1 µM) was 0.683 and the relative viability ([2]; first compound 0.3162 µM) was 0.62. For the same cell line, the relative viability ([2]; first compound 1 µM) was 0.592, the relative viability ([3]; first compound 0.01 µM) was 1.19 and the relative viability ([3]; first compound 0.03162 µM) was 1.3. The relative viability ([3]; first compound 0.1 µM) was 1.11, the relative viability ([3]; first compound 0.3162 µM) was 1.04 and the relative viability ([3]; first compound 1 µM) was 1.03. The relative viability ([4]; first compound 0.01 µM) was 1.1, the relative viability ([4]; first compound 0.03162 µM) was 1.4 and the relative viability ([4]; first compound 0.1 µM) was 1.13. The relative viability ([4]; first compound 0.3162 µM) was 0.95 and the relative viability ([4]; first compound 1 µM) was 1.1.
NCI-H650 was tested, and the relative viability ([1]; first compound 0.01 µM) was 1.02, the relative viability ([1]; first compound 0.03162 µM) was 1.01 and the relative viability ([1]; first compound 0.1 µM) was 0.994. The relative viability ([1]; first compound 0.3162 µM) was 1.02, the relative viability ([1]; first compound 1 µM) was 0.88 and the relative viability ([2]; first compound 0.01 µM) was 0.401. The relative viability ([2]; first compound 0.03162 µM) was 0.555, the relative viability ([2]; first compound 0.1 µM) was 0.408 and the relative viability ([2]; first compound 0.3162 µM) was 0.455. For the same cell line, the relative viability ([2]; first compound 1 µM) was 0.465, the relative viability ([3]; first compound 0.01 µM) was 0.977 and the relative viability ([3]; first compound 0.03162 µM) was 0.971. For the same cell line, the relative viability ([3]; first compound 0.1 µM) was 0.813, the relative viability ([3]; first compound 0.3162 µM) was 0.703 and the relative viability ([3]; first compound 1 µM) was 0.992. It also gave a relative viability ([4]; first compound 0.01 µM) of 0.948, a relative viability ([4]; first compound 0.03162 µM) of 0.696 and a relative viability ([4]; first compound 0.1 µM) of 0.644. For the same cell line, the relative viability ([4]; first compound 0.3162 µM) was 0.764 and the relative viability ([4]; first compound 1 µM) was 0.76.
